Like-named read-outs stand apart in the source and are kept apart here. Blank lines part the entries; values can stand above or below the compound they belong to.
What was measured:
[1] = target: FGFR3 (h) (Homo sapiens, UniProt P22607); assay: FGFR3 (enzymatic assay), TR-FRET; assay type: biochemical; details: read-out: FGFR 3 pIC50 (converted)
Method: (§1) In a final reaction volume of 30 μL, FGFR3 (h) (40 ng/ml) was incubated with 50 mM HEPES pH 7.5, 6 mM MnCl2, 1 mM DTT, 0.1 mM Na3VO4, 0.01% Triton-X-100, 500 nM Btn-Flt3 and 25 μM ATP in the presence of compound (1% DMSO final). […] Time-Resolved Fluorescence Resonance Energy Transfer (TR-FRET) signal (ex340 nm. Em 620 nm, em 655 nm) was measured afterwards and results are expressed in RFU (Relative Fluorescence Units).

[2] = target: FGFR4 (h) (Homo sapiens, UniProt P22455); assay: FGFR4 (enzymatic assay), TR-FRET; assay type: biochemical; details: read-out: FGFR 4 pIC50 (converted)
Method: as §1, with “FGFR4” for “FGFR3”, “(60” for “(40”, “5” for “25”

[3] = tested on: Ba/F3-FGFR3-transfected cells in the presence of 10 ng/ml murine IL3; assay: Ba/F3-FGFR3 (plus IL3) cellular proliferation counterscreen, Alamar Blue; assay type: cell-based; details: Mus musculus
How it was run: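 Ba/F3-FGFR3 cells in phenol red-free RPMI-1640/10% FBS exposed to compound 24 h at 37° C., then Alamar Blue (resazurin) 4 h; fluorescence ex 540/em 590 nm. Run at 20000 cells/well (384-well) or 10000 cells/well (96-well); counterscreen identical but with 10 ng/ml murine IL3.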

[4] = target: Ba/F3-KDR-transfected cells (Homo sapiens, UniProt P35968); assay: Ba/F3-KDR (minus IL3) cellular proliferation assay, Alamar Blue; assay type: cell-based
How it was run: (§2)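 Ba/F3-KDR cells in RPMI-1640 with 10% FBS, 20000 (384-well) or 10000 (96-well) per well, given compound for 24 h at 37° C; Alamar Blue then added for 4 h and fluorescence read (ex 540/em 590 nm). Counterscreen run identically with 10 ng/ml murine IL3.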

[5] = tested on: Ba/F3-KDR-transfected cells in the presence of 10 ng/ml murine IL3; assay: Ba/F3-KDR (plus IL3) cellular proliferation counterscreen, Alamar Blue; assay type: cell-based; details: Mus musculus
How it was run: as §2

[6] = tested on: Ba/F3-Flt3-transfected cells in the presence of 10 ng/ml murine IL3; assay: Ba/F3-Flt3 (plus IL3) cellular proliferation counterscreen, Alamar Blue; assay type: cell-based; details: Mus musculus, read-out: BAF3-FLT3 (PLUS IL3) 96 well pIC50 (converted)
[7] = plus 10 ng/ml murine IL3, 384 well, read-out: BAF3-FGFR 3 (PLUS IL3) 384 well pIC50 (converted)
[8] = plus IL3, 96 well, read-out: BAF3-FGFR 3 (PLUS IL3) 96 well pIC50 (converted)
[9] = plus 10 ng/ml murine IL3, read-out: BAF3-KDR (PLUS IL3) 384 well pIC50 (converted)

Sequence of FGFR3 (h) (P22607 23-806): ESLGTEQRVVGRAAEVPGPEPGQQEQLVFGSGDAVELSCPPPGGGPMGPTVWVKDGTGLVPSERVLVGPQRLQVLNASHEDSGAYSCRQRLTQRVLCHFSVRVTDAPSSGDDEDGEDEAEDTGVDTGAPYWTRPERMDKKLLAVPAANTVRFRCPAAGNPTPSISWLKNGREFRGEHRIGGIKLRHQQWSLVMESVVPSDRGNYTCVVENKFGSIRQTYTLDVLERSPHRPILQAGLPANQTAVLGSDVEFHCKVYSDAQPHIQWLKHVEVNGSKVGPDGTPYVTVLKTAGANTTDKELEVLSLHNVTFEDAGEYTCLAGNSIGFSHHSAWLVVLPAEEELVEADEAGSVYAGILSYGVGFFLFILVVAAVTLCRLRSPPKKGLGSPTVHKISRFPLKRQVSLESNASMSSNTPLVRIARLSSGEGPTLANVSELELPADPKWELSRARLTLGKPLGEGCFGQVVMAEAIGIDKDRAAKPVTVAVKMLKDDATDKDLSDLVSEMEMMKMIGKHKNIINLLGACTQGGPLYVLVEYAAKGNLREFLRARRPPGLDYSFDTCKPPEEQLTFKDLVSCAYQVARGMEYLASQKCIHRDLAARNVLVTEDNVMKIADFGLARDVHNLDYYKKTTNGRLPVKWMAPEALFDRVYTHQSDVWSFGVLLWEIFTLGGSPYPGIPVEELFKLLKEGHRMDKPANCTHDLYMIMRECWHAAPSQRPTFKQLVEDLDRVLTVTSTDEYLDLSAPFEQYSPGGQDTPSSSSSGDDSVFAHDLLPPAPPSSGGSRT
Sequence of FGFR4 (h) (P22455 22-802): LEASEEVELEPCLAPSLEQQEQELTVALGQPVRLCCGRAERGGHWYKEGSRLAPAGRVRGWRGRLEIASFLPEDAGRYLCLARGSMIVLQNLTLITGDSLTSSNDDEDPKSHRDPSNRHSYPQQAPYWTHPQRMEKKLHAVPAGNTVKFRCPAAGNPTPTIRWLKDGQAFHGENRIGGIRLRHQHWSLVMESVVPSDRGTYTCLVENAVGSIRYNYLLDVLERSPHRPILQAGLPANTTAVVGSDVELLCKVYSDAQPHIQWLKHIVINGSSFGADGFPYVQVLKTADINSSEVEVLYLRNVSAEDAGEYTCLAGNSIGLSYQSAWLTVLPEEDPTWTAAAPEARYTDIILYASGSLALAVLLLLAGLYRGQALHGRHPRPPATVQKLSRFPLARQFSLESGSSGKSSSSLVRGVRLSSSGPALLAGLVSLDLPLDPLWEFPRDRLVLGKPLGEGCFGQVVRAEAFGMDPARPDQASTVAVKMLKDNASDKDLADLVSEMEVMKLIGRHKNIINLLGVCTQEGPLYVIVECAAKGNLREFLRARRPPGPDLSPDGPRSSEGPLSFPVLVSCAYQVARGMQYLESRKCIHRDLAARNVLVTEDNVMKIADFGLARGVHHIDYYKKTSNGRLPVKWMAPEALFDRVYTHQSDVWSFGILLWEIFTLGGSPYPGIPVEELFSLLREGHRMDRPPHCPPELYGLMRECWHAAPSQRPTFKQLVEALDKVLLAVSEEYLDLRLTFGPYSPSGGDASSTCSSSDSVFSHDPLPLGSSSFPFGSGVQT
Sequence of Ba/F3-KDR-transfected cells (P35968 whole entry, change not shown): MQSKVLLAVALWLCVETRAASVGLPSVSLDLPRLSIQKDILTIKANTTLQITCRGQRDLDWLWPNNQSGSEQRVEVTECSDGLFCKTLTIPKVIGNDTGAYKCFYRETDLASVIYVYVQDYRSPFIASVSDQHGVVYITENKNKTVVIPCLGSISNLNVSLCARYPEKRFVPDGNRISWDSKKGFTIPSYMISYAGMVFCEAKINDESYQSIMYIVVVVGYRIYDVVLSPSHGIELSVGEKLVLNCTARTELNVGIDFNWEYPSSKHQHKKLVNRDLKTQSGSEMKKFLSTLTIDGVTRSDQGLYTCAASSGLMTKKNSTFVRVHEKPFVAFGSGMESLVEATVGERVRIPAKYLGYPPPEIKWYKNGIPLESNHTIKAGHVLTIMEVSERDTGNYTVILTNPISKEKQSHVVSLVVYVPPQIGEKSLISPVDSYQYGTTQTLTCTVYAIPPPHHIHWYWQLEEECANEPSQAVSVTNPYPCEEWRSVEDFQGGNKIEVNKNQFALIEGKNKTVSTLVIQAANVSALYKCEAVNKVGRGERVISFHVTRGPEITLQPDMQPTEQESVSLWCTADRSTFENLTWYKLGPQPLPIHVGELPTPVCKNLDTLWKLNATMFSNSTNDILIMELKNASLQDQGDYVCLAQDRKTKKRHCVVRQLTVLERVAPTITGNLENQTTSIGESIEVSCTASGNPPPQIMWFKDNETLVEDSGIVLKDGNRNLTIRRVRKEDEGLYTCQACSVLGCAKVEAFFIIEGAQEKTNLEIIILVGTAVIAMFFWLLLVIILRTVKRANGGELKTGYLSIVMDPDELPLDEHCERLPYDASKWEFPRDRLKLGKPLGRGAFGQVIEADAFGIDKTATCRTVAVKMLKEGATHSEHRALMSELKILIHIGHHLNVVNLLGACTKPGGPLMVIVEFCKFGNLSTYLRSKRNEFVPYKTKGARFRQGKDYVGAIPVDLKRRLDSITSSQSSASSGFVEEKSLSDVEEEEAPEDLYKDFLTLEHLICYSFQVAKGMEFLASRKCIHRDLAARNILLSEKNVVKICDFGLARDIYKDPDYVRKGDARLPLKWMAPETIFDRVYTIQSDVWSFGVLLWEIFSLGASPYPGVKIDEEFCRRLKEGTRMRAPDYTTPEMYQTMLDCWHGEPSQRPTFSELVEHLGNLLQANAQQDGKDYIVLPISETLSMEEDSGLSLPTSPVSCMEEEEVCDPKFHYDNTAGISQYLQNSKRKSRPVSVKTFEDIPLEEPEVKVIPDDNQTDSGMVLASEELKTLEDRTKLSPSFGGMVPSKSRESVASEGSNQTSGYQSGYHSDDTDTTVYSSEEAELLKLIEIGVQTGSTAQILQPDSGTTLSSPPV

IC50 [1]: 29.5 nM | IC50 [2]: 145 nM | BAF3-KDR (MIN IL3) 384 well pIC50 ([4]; minus IL3): <5 | melting point: 166 °C
SMILES: COc1cc(OC)cc(N(CC2CC2)c2ccc3ncc(-c4c[nH]cn4)nc3c2)c1 [Compound 39]
IC50 [3, 7]: > 10000 nM | IC50 [3, 8]: > 10000 nM | IC50 [5, 9]: > 10000 nM | IC50 ([6]; plus 10 ng/ml murine IL3): > 10000 nM

IC50 [1]: 417 nM | IC50 [2]: 3980 nM | BAF3-KDR (MIN IL3) 384 well pIC50 ([4]; minus IL3, 384 well): <5 | melting point: 181 °C
SMILES: COc1cc(OC)cc(N(CC2CC2)c2ccc3ncc(-c4ccc5[nH]ccc5c4)nc3c2)c1 [Compound 86]
IC50 ([6]; plus IL3, 96 well): > 10000 nM

IC50 [1]: 380 nM | IC50 [2]: > 10000 nM | BAF3-KDR (MIN IL3) 384 well pIC50 ([4]; minus IL3, 384 well): <5 | melting point: 234 °C
SMILES: COc1cc(OC)cc(N(CC2CC2)c2ccc3ncc(-c4cnc5[nH]ccc5c4)nc3c2)c1 [Compound 88]
IC50 ([6]; plus IL3, 96 well): > 10000 nM

IC50 [1]: 282 nM | IC50 [2]: > 10000 nM | melting point: 162 °C
SMILES: COc1cc(OC)cc(N(CC2CC2)c2ccc3ncc(-c4ccnc(N5CCOCC5)c4)nc3c2)c1 [Compound 90]
IC50 [3, 8]: > 10000 nM | IC50 ([6]; plus IL3, 96 well): > 10000 nM

IC50 [1]: 263 nM | IC50 [2]: 2400 nM | BAF3-KDR (MIN IL3) 384 well pIC50 ([4]; minus IL3): <5 | melting point: 155 °C
SMILES: COc1cc(OC)cc(N(CC2CC2)c2ccc3ncc(-c4cccc(N5CCOCC5)c4)nc3c2)c1 [Compound 92]
IC50 ([6]; plus 10 ng/ml murine IL3): > 10000 nM

Second part, the compound before the results:

SMILES: COc1cc(OC)cc(N(CC2CC2)c2ccc3ncc(NC(=O)c4ccc(F)cc4)nc3c2)c1 [Compound 28]
IC50 [1]: 1200 nM | IC50 [2]: > 10000 nM | IC50 [3, 7]: > 10000 nM | IC50 [3, 8]: > 10000 nM | BAF3-KDR (MIN IL3) 384 well pIC50 ([4]; minus IL3): <5 | IC50 [5, 9]: > 10000 nM | melting point: 135 °C | IC50 ([6]; plus 10 ng/ml murine IL3): > 10000 nM

SMILES: COc1cc(OC)cc(N(CC2CC2)c2ccc3ncc(N4CCOCC4)nc3c2)c1 [Compound 63]
IC50 [1]: 138 nM | IC50 [2]: 2290 nM | IC50 [3, 8]: > 10000 nM | IC50 ([3]; plus IL3, 384 well, read-out: BAF3-FGFR 3 (PLUS IL3) 384 well pIC50 (converted)): > 10000 nM | BAF3-KDR (MIN IL3) 384 well pIC50 ([4]; minus IL3, 384 well): <5 | IC50 ([5]; read-out: BAF3-KDR (PLUS IL3) 384 well pIC50, plus IL3, 384 well, read-out: BAF3-KDR (PLUS IL3) 284 well pIC50 (converted)): > 10000 nM | melting point: 114 °C | IC50 ([6]; plus IL3, 96 well): > 10000 nM

SMILES: COc1cc(OC)cc(N(CC2CC2)c2ccc3ncc(-c4nnc(C)o4)nc3c2)c1 [Compound 85]
IC50 [1]: 191 nM | IC50 [2]: 1480 nM | BAF3-KDR (MIN IL3) 384 well pIC50 ([4]; minus IL3, 384 well): <5 | melting point: 134 °C | IC50 ([6]; plus IL3, 96 well): > 10000 nM

SMILES: COc1cc(OC)cc(N(CC2CC2)c2ccc3ncc(C(=O)N4CCC4)nc3c2)c1 [Compound 93]
IC50 [1]: 2340 nM | IC50 [2]: > 10000 nM | BAF3-KDR (MIN IL3) 384 well pIC50 ([4]; minus IL3): <5 | melting point: 176 °C | IC50 ([6]; plus 10 ng/ml murine IL3): > 10000 nM

SMILES: COc1cc(OC)cc(N(CC2CC2)c2ccc3ncc(-n4cccn4)nc3c2)c1 [Compound 95]
IC50 [1]: 1450 nM | IC50 [2]: > 10000 nM | BAF3-KDR (MIN IL3) 384 well pIC50 ([4]; minus IL3): <5 | melting point: 160 °C | IC50 ([6]; plus 10 ng/ml murine IL3): > 10000 nM

Reference: patent publication US10052320B2, “Substituted quinoxalines as FGFR kinase inhibitors” (ASTEX THERAPEUTICS LIMITED, priority 2011, dated 2018)
